Test results: patent US7364866B2, “Drosophila G protein coupled receptors, nucleic acids, and methods related to the same” (Pharmacia & Upjohn Company, priority 1999, dated 2008)
Like-named read-outs stand apart in the source and are kept apart here. Residues, ends and D or L forms follow the SMILES beside them.

Assays:
[1] = system: CHO cells stably transfected with a DmGPCR expression vector; assay: Intracellular calcium measurement using FLIPR, positive controls; assay type: cell-based, Chinese hamster; details: positive controls: A23187 10 μM, ATP 4 μM
Description: (§1) Changes in intracellular calcium levels are another recognized indicator of G protein-coupled receptor activity, and such assays can be employed to screen for modulators of DmGPCR activity. For example, CHO cells stably transfected with a DmGPCR expression vector are plated at a density of 4×10^4 cells/well in Packard black-walled, 96-well plates specially designed to discriminate fluorescence signals emanating from the various wells on the plate. The cells are incubated for 60 minutes at 37° C. in modified Dulbecco's PBS (D-PBS) containing 36 mg/L pyruvate and 1 g/L glucose and one of four calcium indicator dyes (Fluo-3™ AM, Fluo-4™ AM, Calcium Green™-1 AM, or Oregon Green™ 488 BAPTA-1 AM), each at a concentration of 4 μM. […]
(§2) A calcium response is initiated by the addition of one or more candidate receptor agonist compounds, calcium ionophore A23187 (10 μM; positive control), or ATP (4 μM; positive control). Fluorescence is measured by Molecular Device's FLIPR with an argon laser (excitation at 488 nm). […] Basal fluorescence of cells was measured for 20 seconds prior to addition of candidate agonist, ATP, or A23187, and the basal fluorescence level was subtracted from the response signal. The calcium signal is measured for approximately 200 seconds, taking readings every two seconds. […]

DmGPCR1 = assay: Ca+2 mobilization assay (FLIPR), transfected CHO cells; assay type: cell-based, Drosophila melanogaster
Description: as §1, §2

DmGPCR8 [2] = assay: direct calcium mobilization assay (FLIPR); assay type: cell-based, Drosophila melanogaster; details: DmGPCR8 without chimeric G-protein
Description: as §1, §2

[3] = system: DmGPCR8 and chimeric G-proteins; assay: calcium mobilization (FLIPR) in CHO-10001A cells co-transfected with chimeric G-proteins; assay type: cell-based, Drosophila melanogaster; details: for EC50: read-out: EC50, calcium releasing activity
Description: Changes in intracellular calcium levels are another recognized indicator of G protein-coupled receptor activity, and such assays can be employed to screen for modulators of DmGPCR activity. For example, CHO cells stably transfected with a DmGPCR expression vector are plated at a density of 4×10^4 cells/well in Packard black-walled, 96-well plates specially designed to discriminate fluorescence signals emanating from the various wells on the plate. The cells are incubated for 60 minutes at 37° C. in modified Dulbecco's PBS (D-PBS) containing 36 mg/L pyruvate and 1 g/L glucose and one of four calcium indicator dyes (Fluo-3™ AM, Fluo-4™ AM, Calcium Green™-1 AM, or Oregon Green™ 488 BAPTA-1 AM), each at a concentration of 4 μM. Plates are washed once with modified D-PBS and incubated for 10 minutes at 37° C. to remove residual dye from the cellular membrane. In addition, a series of washes with modified D-PBS is performed immediately prior to activation of the calcium response.
A calcium response is initiated by the addition of one or more candidate receptor agonist compounds, calcium ionophore A23187 (10 μM; positive control), or ATP (4 μM; positive control). Fluorescence is measured by Molecular Device's FLIPR with an argon laser (excitation at 488 nm). (See, e.g., Kuntzweiler et al., Drug Dev. Res., 1998, 44(1), 14-20). The F-stop for the detector camera was set at 2.5, and the length of exposure was 0.4 milliseconds. Basal fluorescence of cells was measured for 20 seconds prior to addition of candidate agonist, ATP, or A23187, and the basal fluorescence level was subtracted from the response signal. The calcium signal is measured for approximately 200 seconds, taking readings every two seconds. Calcium ionophore A23187 and ATP increase the calcium signal 200% above baseline levels. In general, activated GPCRs increase the calcium signal approximately 10-15% above baseline signal.
Originally, we have chosen the GTPγS assay as a functional assay because agonist-driven stimulation of GTPγS reflects early events in the DmGPCR activation cascade, regardless of further activation pathways of various down-stream signaling events. This appears especially useful for the assessment of possible activation of orphan DmGPCRs with unknown functions and unknown signaling pathways. […] Since the GTPγS assay is known to poorly recognize GPCRs coupled to the Gq class of G-proteins, a Ca^+2 mobilization assay based on a FLIPR readout was used as well to evaluate Gq-coupled orphan GPCRs in CHO cells transiently transfected with DNA encoding Drosophila GPCRs.

DmGPCR8 [4] = assay: [35S]GTPγS binding assay, dose response; assay type: biochemical, Drosophila melanogaster; details: DmGPCR8 in CHO-10001A cells; given in words
Description: The transfected cells were washed once with ice-cold Dulbecco's phosphate buffered saline (PBS), 5 ml per 10 cm plate, and scraped into 5 ml of the same buffer. Cell suspensions from multiple plates were combined and centrifuged at 500×g for 10 min at 4° C. The cell pellet was reconstituted in ice-cold TEE (25 mM TRIS, 5 mM EGTA, 5 mM EDTA). Convenient aliquots were snap-frozen in liquid nitrogen and stored at −70° C. After thawing, the cells were homogenized and centrifuged at 4° C., 500×g for 5 minutes to pellet nuclei and unbroken cells. The supernatant was centrifuged at 47,000×g for 30 minutes at 4° C. […] Membrane protein concentration was determined using the BCA Protein Assay Reagent from Pierce (Rockford, Ill.) and BSA as standard. […]
Ligand-induced stimulation of [^35S]GTPγS binding was expressed as fold increase over the basal activity with no ligand added. Each treatment was run either in triplicate, or, on occasion, in duplicate, and the binding (cpm) was calculated as means +/− standard deviations. Dose-response curves for the receptor/ligand systems were analyzed using a non-linear least square SAS model, y=Bmax X/(Kd+X). Other dose-response curves were analyzed using Prism (GraphPad Software, Inc. San Diego, Calif.) and the following equation y=Bottom+(Top−Bottom)/(1+10^LogEC50-X). […]

muscle contraction = details: cited from earlier work
DmGPCR5 [5] = target: T1, DmGPCR5 (Drosophila melanogaster, UniProt P30975, L70Q); assay: biochemical; set-up: expressed in transfected cells; host or cells: CHO-1000A (so in the source), transient; details: for maximal stimulation of GTPγS binding above basal level: dose-response
T1 sequence (P30975 whole entry L70Q): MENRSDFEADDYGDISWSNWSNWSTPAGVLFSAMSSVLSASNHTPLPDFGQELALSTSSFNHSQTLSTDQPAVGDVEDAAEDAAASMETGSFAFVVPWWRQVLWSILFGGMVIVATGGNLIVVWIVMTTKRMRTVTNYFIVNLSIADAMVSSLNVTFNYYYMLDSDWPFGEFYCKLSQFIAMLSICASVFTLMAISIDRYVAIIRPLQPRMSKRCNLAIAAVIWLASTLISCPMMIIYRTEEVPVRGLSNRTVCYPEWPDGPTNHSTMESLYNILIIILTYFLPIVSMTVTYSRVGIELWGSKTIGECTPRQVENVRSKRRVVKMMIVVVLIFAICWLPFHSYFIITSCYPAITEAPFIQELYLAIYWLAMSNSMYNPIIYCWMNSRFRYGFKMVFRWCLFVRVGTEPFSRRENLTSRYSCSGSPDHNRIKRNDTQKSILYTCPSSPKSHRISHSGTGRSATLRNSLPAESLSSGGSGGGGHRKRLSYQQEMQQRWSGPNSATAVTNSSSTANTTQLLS
Description: The transfected cells were washed once with ice-cold Dulbecco's phosphate buffered saline (PBS), 5 ml per 10 cm plate, and scraped into 5 ml of the same buffer. Cell suspensions from multiple plates were combined and centrifuged at 500×g for 10 min at 4° C. The cell pellet was reconstituted in ice-cold TEE (25 mM TRIS, 5 mM EGTA, 5 mM EDTA). Convenient aliquots were snap-frozen in liquid nitrogen and stored at −70° C. After thawing, the cells were homogenized and centrifuged at 4° C., 500×g for 5 minutes to pellet nuclei and unbroken cells. The supernatant was centrifuged at 47,000×g for 30 minutes at 4° C. The membrane pellet was washed once with TEE, resuspended in 20 mM HEPES, pH 7.4, 100 mM NaCl, 10 mM MgCl2, 1 mM EDTA (assay buffer), aliquoted and frozen in liquid nitrogen. Membrane aliquots were stored at −70° C. Membrane protein concentration was determined using the BCA Protein Assay Reagent from Pierce (Rockford, Ill.) and BSA as standard.
Initially, reaction mixtures were prepared in 96-well polypropylene plates (Nunc). In each well, peptide aqueous solution (20 μl, 10×), or water controls (20 μl), 18.2 μM GDP in assay buffer (0.11 ml, 10 μM final), and membranes suspended in assay buffer (50 μl, 10 μg membrane protein) were mixed and placed on ice. […] Then the membranes were washed 3 times with 0.25 ml ice-cold wash buffer/well (10 mM HEPES, 10 mM MgCl2, pH 7.4) and vacuum filtered. […] Each treatment was carried out in triplicates.
Ligand-induced stimulation of [^35S]GTPγS binding was expressed as fold increase over the basal activity with no ligand added. Each treatment was run either in triplicate, or, on occasion, in duplicate, and the binding (cpm) was calculated as means +/− standard deviations. Dose-response curves for the receptor/ligand systems were analyzed using a non-linear least square SAS model, y=Bmax X/(Kd+X). Other dose-response curves were analyzed using Prism (GraphPad Software, Inc. San Diego, Calif.) and the following equation y=Bottom+(Top−Bottom)/(1+10^LogEC50-X).
Originally, we have chosen the GTPγS assay as a functional assay because agonist-driven stimulation of GTPγS reflects early events in the DmGPCR activation cascade, regardless of further activation pathways of various down-stream signaling events. This appears especially useful for the assessment of possible activation of orphan DmGPCRs with unknown functions and unknown signaling pathways. The GTPγS assay was carried out with membranes prepared from CHO cells transiently transfected with DNA encoding Drosophila GPCRs using a 96-well MultiScreen G/FB filter plates and a MultiScreen vacuum manifold (Millipore) for filtration. Since the GTPγS assay is known to poorly recognize GPCRs coupled to the Gq class of G-proteins, a Ca^+2 mobilization assay based on a FLIPR readout was used as well to evaluate Gq-coupled orphan GPCRs in CHO cells transiently transfected with DNA encoding Drosophila GPCRs.

DmGPCR5 [6] = target: T1, DmGPCR5; assay: cell-based
Description: The photoprotein luciferase provides another useful tool for assaying for modulators of DmGPCR activity. Cells (e.g., CHO cells or COS7 cells) are transiently co-transfected with both a DmGPCR expression construct (e.g., DmGPCR in pzeoSV2) and a reporter construct which includes a gene for the luciferase protein downstream from a transcription factor binding site, such as the cAMP-response element (CRE), AP-1, or NF-kappa B. Agonist binding to receptors coupled to the Gs subtype of G proteins leads to increases in cAMP, thereby activating the CRE transcription factor and resulting in expression of the luciferase gene. […] Luciferase activity may be quantitatively measured using, e.g., luciferase assay reagents that are commercially available from Promega (Madison, Wis.).
In one exemplary assay, CHO cells are plated in 24-well culture dishes at a density of 100,000 cells/well one day prior to transfection and cultured at 37° C. in MEM (Gibco/BRL) supplemented with 10% fetal bovine serum, 2 mM glutamine, 10 μg/ml penicillin, and 10 μg/ml streptomycin. […] After incubation for 15 minutes at room temperature, 15 μl of the lysate is mixed with 50 μl of substrate solution (Promega) in an opaque-white, 96-well plate, and the luminescence is read immediately on a Wallace model 1450 MicroBeta scintillation and luminescence counter (Wallace Instruments, Gaithersburg, Md.). […]

With `CNc1ccc2oc(C[C@H]3O[C@@]4(CC[C@H]3C)O[C@H]([C@H](C)C(=O)c3ccc[nH]3)[C@H](C)C[C@H]4C)nc2c1C(=O)O` [A23187] the “increase of the calcium signal above baseline levels” value [1] was 200%.
With `CC(C)C[C@H](NC(=O)[C@H](CCCNC(=N)N)NC(=O)[C@H](CC(C)C)NC(=O)[C@H](CCC(N)=O)NC(=O)[C@@H]1CCCN1C(=O)CNC(=O)[C@H](CCCNC(=N)N)NC(=O)[C@H](C)N)C(=O)N[C@@H](CCCNC(=N)N)C(=O)N[C@@H](Cc1ccccc1)C(N)=O` [ARGPQLRLRF-NH2] (H-ARGPQLRLRF-NH2; N-terminus assumed) the EC50 (DmGPCR1) was 100 to 200 nM.
In the case of `Nc1ncnc2c1ncn2[C@@H]1O[C@H](COP(=O)(O)OP(=O)(O)OP(=O)(O)O)[C@@H](O)[C@H]1O` [ATP], the “increase of the calcium signal above baseline levels” value [1] is reported as 200%.
For `CC[C@H](C)[C@@H]1NC(=O)[C@@H]2CCCN2C(=O)[C@H](CC(N)=O)NC(=O)[C@H](Cc2ccccc2)NC(=O)[C@H](Cc2ccc(O)cc2)NC(=O)[C@@H](NC(=O)[C@H](CCC(N)=O)NC(=O)[C@H](CCCNC(=N)N)NC(=O)[C@H](Cc2ccc(O)cc2)NC(=O)[C@H](CCCNC(=N)N)NC(=O)[C@@H](NC(=O)[C@@H]2CCC(=O)N2)C(C)C)CSSC[C@@H](C(=O)N[C@@H](Cc2ccccc2)C(=O)O)NC(=O)[C@H](CO)NC1=O` [DST-C, pGlu-Val-Arg-Tyr-Gln-Cys-Tyr-Phe-Asn-Pro-Ile-Ser-Cys-Phe-OH], the “activity in direct calcium mobilization assay (FLIPR)” value (DmGPCR8 [2]) was “did not show any activity”, the EC50 ([3]; co-transfected with DmGPCR8 and Gqi5) was about 30 nM and the EC50 ([3]; co-transfected with DmGPCR8 and Gqo5) was about 30 nM. The calcium mobilization ([3]; co-transfected with DmGPCR8 and Gqs5) was “no calcium mobilization was observed”, the EC50 ([3]; co-transfected with DmGPCR8 and Gqz5) was 244 nM and the “EC50, GTPγS-binding responses” value (DmGPCR8 [4]) was “low nanomolar range”. The “inhibition of muscle contraction” value (muscle contraction) was “potent and prolonged inhibition”.
`CC[C@H](C)[C@H](NC(=O)[C@H](Cc1ccccc1)NC(=O)[C@H](CO)NC(=O)[C@H](CO)NC(=O)[C@@H](NC(=O)[C@@H]1CCCN1C(=O)[C@H](C)N)[C@@H](C)O)C(=O)NCC(=O)N[C@@H](CCSC)C(=O)N[C@@H](CCCNC(=N)N)C(N)=O` [DTK-1, APTSSFIGMR-NH2] (H-APTSSFIGMR-NH2) gave an EC50 (DmGPCR5 [5]) of 250 to 500 nM.
In the case of `CC(C)C[C@H](NC(=O)CNC(=O)[C@H](Cc1ccc(O)cc1)NC(=O)[C@H](Cc1ccccc1)NC(=O)[C@H](C)NC(=O)[C@H](CC(C)C)NC(=O)[C@@H]1CCCN1C(=O)[C@H](C)N)C(=O)N[C@@H](CCCNC(=N)N)C(N)=O` [DTK-2, APLAFYGLR-NH2] (H-APLAFYGLR-NH2), the EC50 (DmGPCR5 [6]) is reported as 1060 nM and the “EC50, stimulation of GTPγS binding” value (DmGPCR5 [5]; DmGPCR5, given in words) is reported as “low micromolar range”.
Work on `CSCC[C@H](NC(=O)CNC(=O)[C@@H](NC(=O)[C@H](Cc1ccccc1)NC(=O)CNC(=O)[C@@H](NC(=O)[C@@H]1CCCN1C(=O)[C@H](C)N)[C@@H](C)O)[C@@H](C)O)C(=O)N[C@@H](CCCNC(=N)N)C(N)=O` [DTK-3, APTGFTGMR-NH2] (H-APTGFTGMR-NH2) yielded an EC50 (DmGPCR5 [5]) of 250 to 500 nM.
With `CSCC[C@H](NC(=O)CNC(=O)[C@H](CC(C)C)NC(=O)[C@H](Cc1ccccc1)NC(=O)CNC(=O)[C@H](CC(N)=O)NC(=O)[C@@H]1CCCN1C(=O)[C@H](C)N)C(=O)N[C@@H](CCCNC(=N)N)C(N)=O` [DTK-5, APNGFLGMR-NH2] (H-APNGFLGMR-NH2) the EC50 (DmGPCR5 [6]) was 197 nM, the EC50 (DmGPCR5 [5]) was 250 to 500 nM and the “maximal stimulation of GTPγS binding above basal level” value (DmGPCR5 [5]; DmGPCR5) was “ca. 1.5 fold”.
In the case of `CSCC[C@H](NC(=O)CNC(=O)[C@H](Cc1ccc(O)cc1)NC(=O)[C@H](Cc1ccccc1)NC(=O)[C@H](C)NC(=O)[C@H](CC(C)C)NC(=O)[C@@H]1CCCN1C(=O)[C@H](C)N)C(=O)N[C@@H](CCCNC(=N)N)C(N)=O` [Met8-DTK-2, APLAFYGMR-NH2] (H-APLAFYGMR-NH2), the “maximal stimulation of GTPγS binding above basal level” value (DmGPCR5 [5]; DmGPCR5) is reported as “ca. 1.5 fold”.
